The results in this text go back to patent US10913952B2, “Environmental stress response transcriptional regulatory network” (Salk Institute for Biological Studies, priority 2016, dated 2021).

Assay [1] relates to ChIPped TFs. Put plainly: Western blot of epitope-tagged ChIPped TFs after ABA treatment. Type of assay: in vivo, Arabidopsis thaliana. Particulars: H3 loading control. On the technique in general: A western blot detects proteins with antibodies after separation by electrophoresis.
In assay [2] the test system is Arabidopsis thaliana. Put plainly: RNA-seq of ABA-treated etiolated seedlings (ABA time series). Type of assay: in vivo. The protocol: For ABA time series experiments, two biological replicates of 3-day-old etiolated, hydroponic-grown wild-type Col-0 seedlings were treated either by 10 μM (+/−)-ABA (MP biomedicals LLC, cat. #190673) dissolved in ethanol or ethanol-only mock control for 1, 4, 8, 12, 24, 36, and 60 hours. For DEX treatment, short term experiment was carried out by treating 3-day-old etiolated, DEX-inducible GFP-DIG1, GFP-DIG2 or GFP lines with 10 μM DEX (Sigma Aldrich, cat. #D9184); long term experiment was carried out by growing the same lines of plants containing 500 nM DEX for 10 days. Total RNA was isolated using the RNeasy Plant Mini Kit (Qiagen, CA, USA, Cat. #74903), and cDNA libraries were constructed using the TruSeq Stranded Total RNA LT Sample Prep Kit (Illumina, CA, USA, Cat. #15032611) according to manufacturers' instructions. Single-end reads were generated by the HiSeq 2500 Sequencing System (Illumina) and mapped to TAIR10 genome assembly using TopHat 2 (v2.0.8) (56). Mapped reads with mapping score equal to or larger than 10 were counted by HTSeq (v0.5.4) (57) and analyzed by edgeR (v3.6.2) (18) to identify differentially expressed genes using contrasts between ABA- and mock-treated samples at each time point and false discovery rate 0.01 or 0.05 as thresholds.
The genome-wide binding dynamics of a diverse collection of TFs was profiled using ChIP-seq to develop an in planta ABA transcriptional regulatory network. ABA-responsive transcripts were first surveyed in Arabidopsis thaliana, by generating strand-specific RNA-seq libraries from 3-day-old etiolated whole seedlings treated with either 10 uM (+/−)-ABA or an ethanol-containing mock for 1, 4, 8, 12, 24, 36 and 60 hours (FIG. 1A). Among 18,310 expressed genes, 3,061 are DE (FDR<0.01, Table 1) (18) for at least one time point. One hour of ABA treatment leads to moderate DE of many genes, and most transcriptional responses plateau after 8 hours (FIGS. 1B, 2). On the basis of gene expression data, we performed ChIP-seq experiments at four hours post ABA dose. TFs were selected based on responsiveness to ABA and published evidence, aiming to provide a good representation of TF families (FIG. 3; Tables 1 and 2). In general, highly expressed and responsive TFs were chosen in each representative TF family because in the context of an in planta experimental framework, the impact of these TFs on gene expression can be more effectively investigated compared with their weakly expressed homologs. All TF genes were epitope tagged by a recombineering-based approach (19), mostly with large DNA transformable artificial chromosomes, allowing the TFs to be expressed under their native promoters and genomic context (Table 2). The final dataset consisted of one hundred and twenty-two ChIP-seq experiments of 21 TFs from 11 families, including mock- and ABA-treated conditions.

The mark [3] stands for this setting: 10 uM ABA treatment for 4 hours.

With `CC1=CC(=O)CC(C)(C)C1(O)/C=C/C(C)=C\C(=O)O` (racemic) [ABA, abscisic acid], in assay [1], the “protein abundance of most ChIPped TFs” value is given as “elevated”. Moreover, in assay [2] (10 uM (+/-)-ABA vs ethanol mock, 1-60 hours, DE for at least one time point, FDR<0.01, among 18,310 expressed genes), the “number of differentially expressed (DE) genes” value is listed as 3,061. Besides, in assay [2] (setting [3]), the “RNA-seq evidence: ABF1” value is given as “up regulated”, the “RNA-seq evidence: ABF3” value is given as “up regulated”, the “RNA-seq evidence: ABF4” value is “up regulated” and the “RNA-seq evidence: ANAC032” value was “up regulated”. In assay [2] (setting [3]), the “RNA-seq evidence: ANAC102” value is reported as “up regulated”, the “RNA-seq evidence: DREB2A” value is reported as “up regulated”, the “RNA-seq evidence: FBH3” value is “up regulated” and the “RNA-seq evidence: GBF2” value is listed as “up regulated”. Moreover, in assay [2] (setting [3]), the “RNA-seq evidence: GBF3” value is on record as “up regulated”, the “RNA-seq evidence: HAT22” value is listed as “up regulated”, the “RNA-seq evidence: HB6” value was “up regulated” and the “RNA-seq evidence: HSFA6A” value is “up regulated”. Moreover, in assay [2] (setting [3]), the “RNA-seq evidence: MYB3” value is on record as “up regulated”, the “RNA-seq evidence: MYB44” value is “up regulated”, the “RNA-seq evidence: NF-YB2” value was “up regulated” and the “RNA-seq evidence: NF-YC2” value is listed as “up regulated”. In addition, in assay [2] (setting [3]), the “RNA-seq evidence: RD26 (ANAC072)” value is listed as “up regulated” and the “RNA-seq evidence: ZAT6” value is reported as “up regulated”. In addition, in assay [2] (first 1, 4 or 8 hours of ABA treatment, edgeR FDR threshold 0.05), the “number of differentially expressed TFs” value was “Two hundred and twenty-two”.
